Measured values: the supplement of paper PMC11451515

Test system: P12-Ichikawa
Experiment: cell viability relative to DMSO control; higher = less cytotoxic
Conditions: 48 h
In short: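 Viability is expressed as a percentage of DMSO wells within each plate, and cell-free wells serve as background. Seeding densities in the 1536-well plates (5 μl) were 500 cells/well for NOMO1 or SEM leukemia cells and 1000 cells/well for P12-Ichikawa. Each line was adapted for at least four passages in each medium. Library compounds in DMSO were pin-dosed at 47 μM to 0.79 nM (11 points, threefold), and CellTiter-Glo One luminescence was read after 48 h at 37°C.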

[1] = RPMI 5 mM glucose + 10% FBS, 0.000781 µM
[2] = RPMI 5 mM glucose + 10% FBS, 0.00234 µM
[3] = RPMI 5 mM glucose + 10% FBS, 0.00702 µM
[4] = RPMI 5 mM glucose + 10% FBS, 0.0211 µM
[5] = RPMI 5 mM glucose + 10% FBS, 0.0632 µM
[6] = RPMI 5 mM glucose + 10% FBS, 0.19 µM
[7] = RPMI 5 mM glucose + 10% FBS, 0.569 µM
[8] = RPMI 5 mM glucose + 10% FBS, 1.71 µM
[9] = RPMI 5 mM glucose + 10% FBS, 5.12 µM
[10] = RPMI 5 mM glucose + 10% FBS, 15.4 µM
[11] = RPMI 5 mM glucose + 10% FBS, 46.1 µM
[12] = RPMI 5 mM glucose + 10% dialyzed FBS, 0.000781 µM
[13] = RPMI 5 mM glucose + 10% dialyzed FBS, 0.00234 µM
[14] = RPMI 5 mM glucose + 10% dialyzed FBS, 0.00702 µM
[15] = RPMI 5 mM glucose + 10% dialyzed FBS, 0.0211 µM
[16] = RPMI 5 mM glucose + 10% dialyzed FBS, 0.0632 µM
[17] = RPMI 5 mM glucose + 10% dialyzed FBS, 0.19 µM
[18] = RPMI 5 mM glucose + 10% dialyzed FBS, 0.569 µM
[19] = RPMI 5 mM glucose + 10% dialyzed FBS, 1.71 µM
[20] = RPMI 5 mM glucose + 10% dialyzed FBS, 5.12 µM
[21] = RPMI 5 mM glucose + 10% dialyzed FBS, 15.4 µM
[22] = RPMI 5 mM glucose + 10% dialyzed FBS, 46.1 µM
[23] = HPLM + 10% dialyzed FBS, 0.000781 µM
[24] = HPLM + 10% dialyzed FBS, 0.00234 µM
[25] = HPLM + 10% dialyzed FBS, 0.00702 µM
[26] = HPLM + 10% dialyzed FBS, 0.0211 µM
[27] = HPLM + 10% dialyzed FBS, 0.0632 µM
[28] = HPLM + 10% dialyzed FBS, 0.19 µM
[29] = HPLM + 10% dialyzed FBS, 0.569 µM
[30] = HPLM + 10% dialyzed FBS, 1.71 µM
[31] = HPLM + 10% dialyzed FBS, 5.12 µM
[32] = HPLM + 10% dialyzed FBS, 15.4 µM
[33] = HPLM + 10% dialyzed FBS, 46.1 µM

SMILES	cell viability [1]	cell viability [2]	cell viability [3]	cell viability [4]	cell viability [5]	cell viability [6]	cell viability [7]	cell viability [8]	cell viability [9]	cell viability [10]	cell viability [11]	cell viability [12]	cell viability [13]	cell viability [14]	cell viability [15]	cell viability [16]	cell viability [17]	cell viability [18]	cell viability [19]	cell viability [20]	cell viability [21]	cell viability [22]	cell viability [23]	cell viability [24]	cell viability [25]	cell viability [26]	cell viability [27]	cell viability [28]	cell viability [29]	cell viability [30]	cell viability [31]	cell viability [32]	cell viability [33]
Cc1coc2c1C(=O)C(=O)c1c-2ccc2c(C)cccc12	120%	123%	107%	112%	128%	120%	114%	123%	111%	121%	115%	125%	116%	124%	117%	116%	112%	117%	109%	109%	103%	108%	–	–	–	–	–	–	–	–	–	–	–
CC(C)(C#N)c1cc(Cn2cncn2)cc(C(C)(C)C#N)c1	130%	118%	121%	129%	120%	124%	128%	131%	113%	112%	112%	–	–	–	–	–	–	–	–	–	–	–	120%	119%	117%	119%	117%	116%	115%	115%	113%	108%	97%
O=C(Nc1cccc(C(F)(F)F)c1)Nc1cc([S+](=O)([O-])NC2CC2)ccc1-c1ccsc1	120%	118%	119%	112%	123%	118%	116%	119%	112%	110%	69.8%	121%	116%	107%	121%	117%	119%	105%	94.1%	107%	103%	50.1%	127%	109%	115%	111%	112%	114%	110%	110%	108%	104%	76.9%
COc1ccc([C@@H]2CC(=O)c3c(O)cc(O[C@@H]4O[C@H](CO[C@@H]5O[C@@H](C)[C@H](O)[C@@H](O)[C@H]5O)[C@@H](O)[C@H](O)[C@H]4O)cc3O2)cc1O	94.2%	104%	109%	93.7%	107%	115%	111%	119%	110%	105%	103%	97.3%	117%	114%	111%	123%	116%	126%	119%	122%	111%	114%	107%	109%	106%	114%	120%	124%	121%	118%	115%	114%	116%
O=C1NC(=O)/C(=C/c2ccc3nccc(-c4ccncc4)c3c2)S1	109%	107%	103%	109%	96.2%	74.5%	64.2%	50.2%	32.6%	17.1%	7.42%	104%	109%	114%	115%	98.8%	83.3%	68.2%	51.1%	34.3%	20.6%	6.67%	112%	120%	122%	115%	98.4%	95.9%	83.8%	68.4%	57.4%	36.1%	5.85%
Clc1ccc(-c2nc3sccn3c2/C=N/OCc2ccc(Cl)c(Cl)c2)cc1	111%	113%	118%	102%	113%	108%	110%	110%	98.5%	96.5%	98.9%	114%	110%	101%	110%	110%	100%	102%	101%	91.3%	101%	102%	114%	109%	107%	112%	108%	103%	104%	106%	101%	99.9%	98%
CC[C@H](NC1=C2N=C[NH]C2=NC=N1)C/3=N/C4=C(C(=CC=C4)F)C(=O)N3C5=CC=CC=C5	114%	115%	118%	120%	128%	104%	86.6%	94.7%	78.2%	61.9%	50.2%	124%	123%	125%	132%	131%	115%	99.7%	98.7%	91.7%	70.7%	51.9%	125%	118%	122%	131%	133%	120%	115%	118%	101%	88.9%	56.3%
CCC[S+]([O-])c1ccc2[nH]c(NC(=O)OC)nc2c1 (configuration not stated)	84.2%	89.9%	89%	89.2%	89.7%	93.9%	99.8%	85.7%	82%	51.1%	27%	92.9%	98.8%	87.7%	91.2%	95.7%	87%	86.3%	84.3%	90%	63%	34.7%	98.5%	101%	95.7%	96.5%	101%	92.7%	102%	91.3%	89.5%	25.3%	22.6%
